The record followed here is ChEMBL document CHEMBL1201862, “PubChem BioAssay data set” (2004).

The structures appear in SMILES notation.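 A five-concentration, 48-hour dose response in 96-well plates underlies each endpoint, interpolated linearly between surrounding concentrations. The concentration for 50% growth inhibition is given as GI50.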 Activity calls are given as the source filed them. No stated cut-off is given here; in the data, active = GI50 up to about 1.1 µM and inactive = higher.

Among the test systems are EKVX; HL-60; Hs-578T; K562; MCF7; MDA-MB-435; NCI-H23; NCI-H460; NCI-H522; NCI/ADR-RES; SF-268; SF-539; SK-OV-3; SN12C; SNB-75; SR; U-251; UACC-257; UACC-62; UO-31.
Holding throughout (test): NCI-60 cell line screen, 48 h

Regarding `NC1=CN2c3ccccc3N(CC(=O)N3CCOCC3)C2C=C1` (stereo not given), the GI50 with EKVX, in the experiment on HL-60, with Hs-578T, in the experiment with K562, in the experiment on MCF7 and in the experiment on MDA-MB-435 was > 100 µM (inactive) throughout. The GI50 in the experiment with NCI-H23, in the experiment with NCI-H460, in the experiment on NCI-H522, in the experiment on NCI/ADR-RES, in the experiment on SF-268 and in the experiment with SF-539 was > 100 µM (inactive) each time. Further, the GI50 with SK-OV-3, with SN12C, with SNB-75, in the experiment on SR, with U-251 and with UACC-257 was > 100 µM (inactive) in each case. Further, the GI50 in the experiment on UACC-62 and in the experiment with UO-31 was > 100 µM (inactive) throughout.
For `C[S+](C)C1(c2ccccc2)C(=O)c2ccccc2C1=O`, the GI50 is 34 µM (inactive) in the experiment on EKVX; > 31.6 µM (inactive) with HL-60; 24.4 µM (inactive) with Hs-578T; > 51.6 µM (inactive) in the experiment on K562; > 100 µM (inactive) in the experiment with MCF7; 42.6 µM (inactive) in the experiment with MDA-MB-435. Also, the GI50 with NCI-H23 is > 65.9 µM (inactive); with NCI-H460 it was > 55.6 µM (inactive); with NCI-H522, > 48.8 µM (inactive); in the experiment with NCI/ADR-RES it was 24.8 µM (inactive); in the experiment with SF-268 it was 60.3 µM (inactive); in the experiment on SF-539 it was 28.7 µM (inactive). Besides, the GI50 was > 100 µM (inactive) with SK-OV-3; > 100 µM (inactive) with SN12C; 29.2 µM (inactive) with SNB-75; > 72.8 µM (inactive) in the experiment with SR; 22.5 µM (inactive) in the experiment on U-251; > 64.9 µM (inactive) with UACC-257. Moreover, the GI50 with UACC-62 was > 41 µM (inactive); in the experiment with UO-31, 32.1 µM (inactive).
On to `C[N+](C)(C)CC1CCCC(C[N+](C)(C)C)C1=O` (stereo not given), for which the GI50 in the experiment on EKVX was 1.58 µM (inactive); in the experiment with HL-60 it was 0.272 µM (active); with Hs-578T, 13 µM (inactive); in the experiment on K562, 0.0724 µM (active); in the experiment on MCF7 it was 0.506 µM (active); in the experiment with MDA-MB-435, 1.8 µM (inactive). Besides, the GI50 is 2.42 µM (inactive) in the experiment with NCI-H23; 16.3 µM (inactive) in the experiment on NCI-H460; 0.447 µM (active) in the experiment with NCI-H522; 2.59 µM (inactive) in the experiment with NCI/ADR-RES; 7.31 µM (inactive) with SF-268; 4.79 µM (inactive) in the experiment on SF-539. Moreover, the GI50 in the experiment with SK-OV-3 is 13.7 µM (inactive); in the experiment on SN12C, 1.19 µM (inactive); in the experiment on SNB-75, 4.7 µM (inactive); with SR it was 0.158 µM (active); with U-251, 3.35 µM (inactive); with UACC-257 it was 0.805 µM (active). Moreover, the figures for the GI50 with UACC-62 and in the experiment on UO-31 were 4.66 µM (inactive) and 1.67 µM (inactive), respectively.
For `Nc1nc(SCC(=O)c2ccccc2)nc2nc3c(c(-c4ccccc4)c12)CCCC3`, the GI50 in the experiment with EKVX was 63.4 µM (inactive); in the experiment with HL-60, > 100 µM (inactive); with Hs-578T it was 19.1 µM (inactive); with K562 it was > 100 µM (inactive); with MCF7 it was 47.8 µM (inactive); in the experiment with MDA-MB-435 it was 32.6 µM (inactive). For the same compound, the GI50 with NCI-H23 was 76.2 µM (inactive); with NCI-H460, 32.9 µM (inactive); with NCI-H522, 31.2 µM (inactive); in the experiment on NCI/ADR-RES, 25.6 µM (inactive); with SF-268 it was 18.4 µM (inactive); in the experiment with SF-539, > 100 µM (inactive). Moreover, the GI50 was 4.71 µM (inactive) in the experiment with SK-OV-3; 38.5 µM (inactive) in the experiment on SN12C; 26.4 µM (inactive) with SNB-75; > 100 µM (inactive) with SR; 32 µM (inactive) in the experiment on U-251; 35 µM (inactive) in the experiment on UACC-257. Besides, the values for the GI50 in the experiment on UACC-62 and with UO-31 were 23.3 µM (inactive) and 12.4 µM (inactive), respectively.
Consider `Cc1sc2nc3n(c(=O)c2c1C)N=C(c1ccc([N+](=O)[O-])cc1)CS3`, for which the GI50 in the experiment with EKVX is > 100 µM (inactive); in the experiment with HL-60, > 100 µM (inactive); with Hs-578T, 97.5 µM (inactive); in the experiment on K562, > 100 µM (inactive); in the experiment with MCF7, > 100 µM (inactive); in the experiment with MDA-MB-435 it was > 100 µM (inactive). Further, the GI50 with NCI-H23, with NCI-H460, in the experiment on NCI-H522, in the experiment on NCI/ADR-RES, with SF-268 and in the experiment on SF-539 was > 100 µM (inactive) each time. Also, the GI50 in the experiment with SK-OV-3 was > 100 µM (inactive); in the experiment with SN12C, > 100 µM (inactive); in the experiment on SNB-75, 83.8 µM (inactive); in the experiment on SR, > 100 µM (inactive); in the experiment with U-251, > 100 µM (inactive); in the experiment on UACC-257, > 100 µM (inactive). For the same compound, the GI50 in the experiment with UACC-62 and in the experiment on UO-31 was > 100 µM (inactive) each time.
